Measurements published in patent US20050124665A1, “Pharmaceutical compositions” (priority 2001, published 2005).

Columns and labels:
Sendai virus = test: Effect on the replication of Sendai virus (virus yield by HAU titration in 37RC cells); assay type: cell-based; details: Respirovirus muris, in Primates; at 24 hours after infection; monkey kidney 37RC cells infected with SV (5 HAU/10^5 cells); virus yield in supernatant by HAU titration; read-out: ID50 (the 50% inhibitory dose/concentration)
Protocol: Methods: Monkey kidney 37RC cells were grown at 37° C. under the conditions described in Example 6 for T cells. The parainfluenza Sendai virus (SV) was grown in the allantoic cavity of 10-day-old embroynated eggs. Viral titre was expressed in haemagglutinating units (HAU) per ml; haemagglutin titration was done according to standard procedures using human 0 Rh+ erythrocytes, as described in C. Amici et al. (J. Virol. 68: 6890-6899, 1994). Confluent monolayers of 37RC cells were infected with SV virus (5 HAU/10^5 cells) for 1 h at 37° C., and then treated with different concentrations of test compounds. Virus yield at 24 hours after infection was determined in the supernatant of infected cells by HAU titration. The results from representative experiments are shown for CTC-73, 74, 83, 84 and 85 (as identified above) in FIGS. 1a, 2a, 3a, 4a and 5a, respectively.

HSF1 = molecular target: T1, HSF1 (Homo sapiens, UniProt Q00613); details: cited from earlier work
T1 sequence (Q00613 1-529): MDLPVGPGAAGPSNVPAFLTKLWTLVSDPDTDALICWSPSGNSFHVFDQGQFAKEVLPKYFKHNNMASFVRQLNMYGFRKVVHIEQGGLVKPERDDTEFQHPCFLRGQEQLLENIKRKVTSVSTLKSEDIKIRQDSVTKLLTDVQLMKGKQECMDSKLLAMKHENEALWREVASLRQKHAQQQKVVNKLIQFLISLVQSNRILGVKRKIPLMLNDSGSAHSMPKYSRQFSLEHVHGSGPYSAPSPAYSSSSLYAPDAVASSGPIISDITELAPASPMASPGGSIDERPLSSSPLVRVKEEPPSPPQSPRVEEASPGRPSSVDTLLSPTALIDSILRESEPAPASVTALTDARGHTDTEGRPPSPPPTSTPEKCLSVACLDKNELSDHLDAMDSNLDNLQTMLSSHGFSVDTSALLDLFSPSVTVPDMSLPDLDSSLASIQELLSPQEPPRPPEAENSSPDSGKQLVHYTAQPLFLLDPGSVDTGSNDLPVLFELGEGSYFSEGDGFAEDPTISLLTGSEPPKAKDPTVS

NF-κB = details: at the same concentration (125-500 μM); cited from earlier work

IC50 (Sendai virus) [µM]	SMILES	Concentration able to activate HSF1 and trigger synthesis of HSP70 (HSF1) [µM]	Block of NF-κB activation (NF-κB)
1	CCCC/C=C\CC1CC=CC1=O (stereo not drawn) [CTC-74, ((Z)-5-Hept-2-enyl)-cyclopent-2-enone]		
10	CCCCCC/C=C\CC1CC=CC1=O (stereo not drawn) [CTC-83, ((Z)-5-Non-2-enyl)-cyclopent-2-enone]		
7	CCCCCCCCC/C=C\CC1CC=CC1=O (stereo not drawn) [CTC-84, ((Z)-5-Dodec-2-enyl)-cyclopent-2-enone]		
10	CCCCCCCCC/C=C/CC1CC=CC1=O (stereo not drawn) [CTC-85, ((E)-5-Dodec-2-enyl)-cyclopent-2-enone]		
	O=C1C=CCC1 [cyclopent-2-en-1-one]	125 to 500	able to block NF-κB activation
